The values below come from ChEMBL document CHEMBL3124747, “Formosusin A, a novel specific inhibitor of mammalian DNA polymerase β from the fungus Paecilomyces formosus” (Bioorg Med Chem, 2014).

One test has as its target T7 RNA polymerase (Enterobacteria phage T7, UniProt P00573). In words: Inhibition of T7 RNA polymerase assessed as inhibition of incorporation of dTTP into poly(dA)/oligo(dT)18 after 60 mins. On the set-up: species or system Escherichia phage T7.
The nature of test [1]: Inhibition of Thermus aquaticus DNA polymerase assessed as inhibition of incorporation of dTTP into poly(dA)/oligo(dT)18 after 60 mins.
Test [2] in a line: Inhibition of calf thymus DNA polymerase alpha assessed as inhibition of incorporation of dTTP into poly(dA)/oligo(dT)18 after 60 mins. More on the design: species or system Bos taurus.
The target of a further test is T1, DNA polymerase lambda (Mus musculus, UniProt Q9QXE2).
T1 sequence (Q9QXE2 whole entry): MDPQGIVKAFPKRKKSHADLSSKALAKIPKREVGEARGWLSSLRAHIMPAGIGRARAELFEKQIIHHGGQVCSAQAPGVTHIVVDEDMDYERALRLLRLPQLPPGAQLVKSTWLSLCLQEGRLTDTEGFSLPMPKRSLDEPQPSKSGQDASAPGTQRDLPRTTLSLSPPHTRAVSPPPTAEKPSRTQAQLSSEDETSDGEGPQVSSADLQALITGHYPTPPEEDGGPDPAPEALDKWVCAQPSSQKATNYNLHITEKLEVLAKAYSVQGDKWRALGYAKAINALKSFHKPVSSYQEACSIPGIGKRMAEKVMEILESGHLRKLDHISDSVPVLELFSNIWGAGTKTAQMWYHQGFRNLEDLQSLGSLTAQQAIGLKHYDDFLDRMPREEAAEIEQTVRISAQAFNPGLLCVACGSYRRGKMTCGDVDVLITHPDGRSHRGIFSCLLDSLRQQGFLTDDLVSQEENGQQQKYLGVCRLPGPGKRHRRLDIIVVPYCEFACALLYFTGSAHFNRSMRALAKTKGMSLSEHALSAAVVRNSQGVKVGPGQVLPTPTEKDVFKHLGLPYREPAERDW
In words: Inhibition of mouse DNA polymerase lambda assessed as inhibition of incorporation of dTTP into poly(dA)/oligo(dT)18 after 60 mins.

Test [3] has as its target T2, DNA polymerase alpha catalytic subunit (Drosophila melanogaster, UniProt P26019).
T2 sequence (P26019 whole entry): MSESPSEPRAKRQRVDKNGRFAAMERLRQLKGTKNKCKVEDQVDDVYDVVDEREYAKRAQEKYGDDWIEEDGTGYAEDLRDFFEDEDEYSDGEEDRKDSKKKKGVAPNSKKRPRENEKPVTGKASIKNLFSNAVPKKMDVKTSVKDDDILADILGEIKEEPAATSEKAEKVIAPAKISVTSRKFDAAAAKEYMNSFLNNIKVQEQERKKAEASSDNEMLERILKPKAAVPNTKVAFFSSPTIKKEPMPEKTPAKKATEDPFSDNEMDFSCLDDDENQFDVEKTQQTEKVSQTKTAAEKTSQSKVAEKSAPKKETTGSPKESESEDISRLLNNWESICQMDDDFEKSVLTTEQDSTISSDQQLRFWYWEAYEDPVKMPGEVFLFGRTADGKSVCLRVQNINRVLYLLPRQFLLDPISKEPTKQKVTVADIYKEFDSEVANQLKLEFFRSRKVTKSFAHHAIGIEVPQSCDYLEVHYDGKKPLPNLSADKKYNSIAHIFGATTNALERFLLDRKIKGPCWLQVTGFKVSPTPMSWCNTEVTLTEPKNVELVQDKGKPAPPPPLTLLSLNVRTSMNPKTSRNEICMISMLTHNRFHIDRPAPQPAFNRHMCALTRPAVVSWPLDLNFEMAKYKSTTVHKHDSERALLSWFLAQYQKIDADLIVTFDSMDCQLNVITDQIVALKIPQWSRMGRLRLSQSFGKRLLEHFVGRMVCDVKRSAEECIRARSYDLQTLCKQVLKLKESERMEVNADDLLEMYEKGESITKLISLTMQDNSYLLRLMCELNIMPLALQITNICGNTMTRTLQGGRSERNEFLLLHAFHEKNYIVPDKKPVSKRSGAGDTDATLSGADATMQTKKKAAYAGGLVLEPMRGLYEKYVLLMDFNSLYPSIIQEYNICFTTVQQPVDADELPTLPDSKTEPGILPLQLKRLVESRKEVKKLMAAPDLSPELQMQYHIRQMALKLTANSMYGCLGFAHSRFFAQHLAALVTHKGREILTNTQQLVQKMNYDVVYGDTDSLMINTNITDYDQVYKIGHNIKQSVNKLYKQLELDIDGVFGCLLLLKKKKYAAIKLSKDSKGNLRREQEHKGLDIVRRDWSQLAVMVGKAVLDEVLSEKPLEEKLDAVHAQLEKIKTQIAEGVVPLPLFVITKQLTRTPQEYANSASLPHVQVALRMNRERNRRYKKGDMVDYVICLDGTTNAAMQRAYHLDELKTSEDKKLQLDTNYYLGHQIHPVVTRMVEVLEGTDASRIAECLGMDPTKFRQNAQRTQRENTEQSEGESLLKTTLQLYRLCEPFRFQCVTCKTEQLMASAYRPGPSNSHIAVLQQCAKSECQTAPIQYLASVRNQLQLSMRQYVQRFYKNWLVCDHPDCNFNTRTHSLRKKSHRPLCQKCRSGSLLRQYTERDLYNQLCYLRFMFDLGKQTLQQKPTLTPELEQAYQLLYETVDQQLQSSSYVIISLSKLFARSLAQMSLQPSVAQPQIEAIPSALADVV
In words: Inhibition of fruit fly DNA polymerase alpha assessed as inhibition of incorporation of dTTP into poly(dA)/oligo(dT)18 after 60 mins.

A short description of test [4]: Inhibition of human His-tagged DNA polymerase gamma expressed in baculovirus assessed as inhibition of incorporation of dTTP into poly(dA)/oligo(dT)18 after 60 mins.
For a further test, the target named is DNA polymerase beta (Rattus norvegicus, UniProt P06766). Put plainly: Inhibition of recombinant rat DNA polymerase beta expressed in Escherichia coli JMpbeta5 assessed as inhibition of incorporation of dTTP into poly(dA)/oligo(dT)18 after 60 mins.
Test [5] deals with DNA-directed DNA/RNA polymerase mu (Homo sapiens, UniProt Q9NP87). In words: Inhibition of human His-tagged recombinant DNA polymerase mu expressed in Escherichia coli BL21 assessed as inhibition of incorporation of dTTP into poly(dA)/oligo(dT)18 after 60 mins.
Test [6] has as its target Inosine-5'-monophosphate dehydrogenase 2 (Mus musculus, UniProt P24547). In words: Inhibition of mouse IMP dehydrogenase 2 assessed as inhibition of incorporation of dTTP into poly(dA)/oligo(dT)18 after 60 mins.
The nature of test [7]: Inhibition of fruit fly DNA polymerase epsilon assessed as inhibition of incorporation of dTTP into poly(dA)/oligo(dT)18 after 60 mins. On the set-up: species or system Drosophila melanogaster.

Inosine-5'-monophosphate dehydrogenase 2, sequence (P24547 whole entry): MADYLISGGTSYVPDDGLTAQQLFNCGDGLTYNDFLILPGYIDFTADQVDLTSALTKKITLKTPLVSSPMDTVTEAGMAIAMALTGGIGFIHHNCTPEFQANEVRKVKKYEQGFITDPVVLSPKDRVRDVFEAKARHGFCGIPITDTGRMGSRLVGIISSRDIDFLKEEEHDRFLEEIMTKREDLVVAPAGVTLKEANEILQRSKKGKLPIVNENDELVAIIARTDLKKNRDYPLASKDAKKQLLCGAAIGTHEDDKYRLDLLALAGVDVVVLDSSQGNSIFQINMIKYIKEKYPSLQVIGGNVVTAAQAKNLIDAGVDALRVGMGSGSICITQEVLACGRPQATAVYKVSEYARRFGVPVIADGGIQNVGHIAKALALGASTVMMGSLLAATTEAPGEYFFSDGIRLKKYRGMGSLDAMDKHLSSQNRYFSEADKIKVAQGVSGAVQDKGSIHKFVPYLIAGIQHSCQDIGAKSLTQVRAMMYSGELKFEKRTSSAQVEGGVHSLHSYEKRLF
T7 RNA polymerase, sequence (P00573 whole entry): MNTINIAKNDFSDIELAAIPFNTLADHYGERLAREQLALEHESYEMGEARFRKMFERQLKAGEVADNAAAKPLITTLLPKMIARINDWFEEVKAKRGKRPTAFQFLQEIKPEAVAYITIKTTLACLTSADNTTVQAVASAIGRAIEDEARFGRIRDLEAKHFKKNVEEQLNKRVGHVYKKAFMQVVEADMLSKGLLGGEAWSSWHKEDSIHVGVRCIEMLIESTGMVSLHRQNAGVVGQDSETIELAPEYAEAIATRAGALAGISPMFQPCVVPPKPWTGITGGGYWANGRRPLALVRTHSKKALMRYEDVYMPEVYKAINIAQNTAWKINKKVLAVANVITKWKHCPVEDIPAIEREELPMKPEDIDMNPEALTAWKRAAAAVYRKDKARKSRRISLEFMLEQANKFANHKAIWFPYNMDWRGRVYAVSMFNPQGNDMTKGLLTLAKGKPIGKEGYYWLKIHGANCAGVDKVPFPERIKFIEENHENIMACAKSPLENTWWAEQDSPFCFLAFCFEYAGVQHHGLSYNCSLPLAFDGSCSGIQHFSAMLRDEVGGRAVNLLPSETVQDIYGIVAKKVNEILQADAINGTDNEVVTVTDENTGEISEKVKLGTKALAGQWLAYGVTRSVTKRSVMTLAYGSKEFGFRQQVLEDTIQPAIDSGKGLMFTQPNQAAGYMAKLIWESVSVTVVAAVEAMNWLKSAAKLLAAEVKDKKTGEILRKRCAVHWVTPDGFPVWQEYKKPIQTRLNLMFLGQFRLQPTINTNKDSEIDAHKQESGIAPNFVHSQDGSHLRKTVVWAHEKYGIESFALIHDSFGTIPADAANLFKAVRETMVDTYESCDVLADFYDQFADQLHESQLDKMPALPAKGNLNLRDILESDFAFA
DNA-directed DNA/RNA polymerase mu, sequence (Q9NP87 whole entry): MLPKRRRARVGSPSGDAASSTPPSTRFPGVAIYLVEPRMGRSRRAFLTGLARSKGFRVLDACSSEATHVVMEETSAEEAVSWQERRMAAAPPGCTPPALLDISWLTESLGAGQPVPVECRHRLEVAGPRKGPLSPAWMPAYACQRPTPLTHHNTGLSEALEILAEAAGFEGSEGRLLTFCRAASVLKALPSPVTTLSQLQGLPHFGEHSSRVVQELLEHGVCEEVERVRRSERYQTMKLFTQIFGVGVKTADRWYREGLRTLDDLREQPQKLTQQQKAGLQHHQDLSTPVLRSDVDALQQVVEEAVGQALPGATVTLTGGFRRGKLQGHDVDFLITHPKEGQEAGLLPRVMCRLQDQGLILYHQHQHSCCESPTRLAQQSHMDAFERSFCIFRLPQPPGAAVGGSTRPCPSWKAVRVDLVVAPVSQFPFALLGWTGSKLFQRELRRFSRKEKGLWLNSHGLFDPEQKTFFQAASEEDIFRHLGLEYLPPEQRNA

In general, IC50 refers to the point on the concentration scale where inhibition reaches its midpoint. With `CCCC[C@@H](O)/C=C(C)/C=C/C=C\C(=O)N1CCCC1=O`, the half-maximal inhibitory concentration (IC50) (at T7 RNA polymerase; in test [1]; in test [2]; on DNA polymerase lambda; in test [3]; in [4]) was greater than 200 µM each time. Further, the concentration for half-maximal inhibition (IC50) at DNA polymerase beta was 35.6 µM; in test [5] it was greater than 200 µM; in test [6], greater than 200 µM; in [7], greater than 200 µM.

As for `CCCCC(=O)/C=C(C)/C=C/CCC(=O)N1CCCC1=O`, the half-inhibitory concentration (IC50) (on T7 RNA polymerase; in test [1]; in [2]; at DNA polymerase lambda; in test [3]; in [4]) was greater than 200 µM in each case. Further, the IC50 (on DNA polymerase beta; in test [5]; in test [6]; in test [7]) was greater than 200 µM throughout.

For the molecule `CCCC[C@@H](O)/C=C(C)/C=C/C=C/C(=O)N1CCCC1=O` [PECILOCIN], the half-inhibitory concentration (IC50) (at T7 RNA polymerase; in test [1]; in test [2]; on DNA polymerase lambda; in test [3]; in [4]) was greater than 200 µM each time. Further, the IC50 (on DNA polymerase beta; in [5]; in [6]; in test [7]) was greater than 200 µM throughout.

Consider `CC(/C=C/CCC(=O)N1CCCC1=O)=C\C1CCCCO1` (stereo not given), for which the concentration for half-maximal inhibition (IC50) (at T7 RNA polymerase; in test [1]; in [2]; at DNA polymerase lambda; in test [3]; in [4]) was greater than 200 µM in each case. The IC50 (on DNA polymerase beta; in [5]; in [6]; in test [7]) was greater than 200 µM in each case.
